From PubChem BioAssay AID216 (DTP/NCI, 2004)
Several values for one entry are separate records, joined by “and”; a condition that tells them apart may be missing. Identical values can stand only once. Inconclusive results and toxic doses are left out.

Test system: BDF1 mice, P288 leukemia ip, survival T/C
Assay: NCI In Vivo Anticancer Drug Screen. Data for tumor model P288 Lymphocytic Leukemia (intraperitoneal) in B6D2F1 (BDF1) mice
Conditions: endpoint: survival time, mean or median, higher = longer survival
Description: The antitumor activity of compounds was measured in mice bearing transplantable tumors. Survival or tumor size were measured and the results are expressed as the measurement made in the treated group (T) divided by the measurement made in the vehicle treated control group (C). The tumor model used in this assay is P288 Lymphocytic Leukemia (intraperitoneal) in B6D2F1 (BDF1) mice

[1] = dose: 8.0 mg/kg/injection, schedule: Q01DX010 (ip), vehicle: other
[2] = dose: 16.0 mg/kg/injection, schedule: Q01DX010 (ip), vehicle: other
[3] = dose: 31.25 mg/kg/injection, schedule: Q01DX Z (ip), vehicle: carboxymethylcellulose (CMC)
[4] = dose: 6.25 mg/kg/injection, schedule: Q01DX Z (ip), vehicle: carboxymethylcellulose (CMC)
[5] = dose: 10.0 mg/kg/injection, schedule: Q01DX010 (ip), vehicle: saline
[6] = dose: 12.5 mg/kg/injection, schedule: Q01DX Z (ip), vehicle: carboxymethylcellulose (CMC)
[7] = dose: 20.0 mg/kg/injection, schedule: Q01DX010 (ip), vehicle: saline
[8] = dose: 25.0 mg/kg/injection, schedule: Q01DX Z (ip), vehicle: carboxymethylcellulose (CMC)
[9] = dose: 40.0 mg/kg/injection, schedule: Q01DX010 (ip), vehicle: saline
[10] = dose: 50.0 mg/kg/injection, schedule: Q01DX Z (ip), vehicle: carboxymethylcellulose (CMC)

CN(C)CC(=O)c1ccc(O)c(O)c1 was tested, and the T/C (dose: 8.0 mg/kg/injection, schedule: Q01DX Z (ip), vehicle: saline) was 94 % of control, the T/C (dose: 16.0 mg/kg/injection, schedule: Q01DX Z (ip), vehicle: saline) was 105 % of control and the T/C (dose: 500.0 mg/kg/injection, schedule: Q01DX Z (ip), vehicle: saline) was 152 % of control. For the same molecule, the T/C (dose: 675.0 mg/kg/injection, schedule: Q01DX010 (ip), vehicle: saline) was 150 % of control.

With CC[C@@H](c1ccc(O)cc1)[C@@H](CC)c1ccc(O)cc1 the T/C (dose: 31.0 mg/kg/injection, schedule: Q01DX Z (sc), vehicle: steriod suspending solution) was 98 % of control, the T/C (dose: 62.5 mg/kg/injection, schedule: Q01DX Z (sc), vehicle: steriod suspending solution) was 98 % of control and the T/C (dose: 125.0 mg/kg/injection, schedule: Q01DX Z (sc), vehicle: steriod suspending solution) was 115 % of control and 97 % of control and 100 % of control. For the same molecule, the T/C (dose: 250.0 mg/kg/injection, schedule: Q01DX Z (sc), vehicle: steriod suspending solution) was 93 % of control and 98 % of control, the T/C (dose: 500.0 mg/kg/injection, schedule: Q01DX Z (sc), vehicle: steriod suspending solution) was 107 % of control and 95 % of control and the T/C (dose: 1000.0 mg/kg/injection, schedule: Q01DX Z (sc), vehicle: steriod suspending solution) was 93 % of control.

For O=C(Nc1ccc(C2=NCCCN2)cc1)c1ccc(NC(=O)c2ccc(C3=NCCCN3)cc2)cc1, the T/C (dose: 0.24 mg/kg/injection, schedule: Q01DX Z (ip), vehicle: carboxymethylcellulose (CMC)) was 113 % of control, the T/C (dose: 0.49 mg/kg/injection, schedule: Q01DX Z (ip), vehicle: carboxymethylcellulose (CMC)) was 94 % of control and the T/C (dose: 0.98 mg/kg/injection, schedule: Q01DX Z (ip), vehicle: carboxymethylcellulose (CMC)) was 121 % of control. The T/C (dose: 1.0 mg/kg/injection, schedule: Q01DX010 (ip), vehicle: other) was 120 % of control, the T/C (dose: 1.95 mg/kg/injection, schedule: Q01DX Z (ip), vehicle: carboxymethylcellulose (CMC)) was 119 % of control and the T/C (dose: 2.0 mg/kg/injection, schedule: Q01DX010 (ip), vehicle: other) was 124 % of control. For the same molecule, the T/C (dose: 3.9 mg/kg/injection, schedule: Q01DX Z (ip), vehicle: carboxymethylcellulose (CMC)) was 183 % of control, the T/C (dose: 4.0 mg/kg/injection, schedule: Q01DX010 (ip), vehicle: other) was 184 % of control and 237 % of control and the T/C (dose: 7.8 mg/kg/injection, schedule: Q01DX Z (ip), vehicle: carboxymethylcellulose (CMC)) was 245 % of control. For the same molecule, the T/C [1] was 237 % of control and 284 % of control, the T/C (dose: 15.6 mg/kg/injection, schedule: Q01DX Z (ip), vehicle: carboxymethylcellulose (CMC)) was 156 % of control and the T/C [2] was 92 % of control. For the same molecule, the T/C [3] was 103 % of control.

For CN(C)c1ccc(/C=C/c2ccnc3ccccc23)cc1, the T/C (dose: 0.2 mg/kg/injection, schedule: Q01DX Z (ip), vehicle: water) was 117 % of control, the T/C (dose: 0.8 mg/kg/injection, schedule: Q01DX Z (ip), vehicle: water) was 98 % of control and the T/C (dose: 1.6 mg/kg/injection, schedule: Q01DX Z (ip), vehicle: water) was 92 % of control. For the same molecule, the T/C (dose: 3.1 mg/kg/injection, schedule: Q01DX Z (ip), vehicle: water) was 91 % of control, the T/C (dose: 5.0 mg/kg/injection, schedule: Q01DX010 (ip), vehicle: saline) was 88 % of control and the T/C [4] was 108 % of control. For the same molecule, the T/C (dose: 6.3 mg/kg/injection, schedule: Q01DX Z (ip), vehicle: water) was 87 % of control, the T/C [5] was 88 % of control and 90 % of control and the T/C [6] was 108 % of control. For the same molecule, the T/C [7] was 88 % of control, the T/C [8] was 114 % of control and the T/C [9] was 88 % of control and 90 % of control. The T/C [10] was 111 % of control.

O=C(Nc1ccc(C2=NCCN2)cc1)c1ccc(C(=O)Nc2ccc(C3=NCCN3)cc2)cc1 was tested, and the T/C (dose: 3.12 mg/kg/injection, schedule: Q01DX Z (ip), vehicle: carboxymethylcellulose (CMC)) was 107 % of control, the T/C [4] was 94 % of control and the T/C [1] was 158 % of control and 188 % of control. The T/C [6] was 102 % of control, the T/C [2] was 195 % of control and the T/C [8] was 102 % of control. The T/C (dose: 32.0 mg/kg/injection, schedule: Q01DX010 (ip), vehicle: other) was 154 % of control, the T/C [10] was 102 % of control and the T/C (dose: 100.0 mg/kg/injection, schedule: Q01DX Z (ip), vehicle: carboxymethylcellulose (CMC)) was 204 % of control. The T/C (dose: 200.0 mg/kg/injection, schedule: Q01DX Z (ip), vehicle: carboxymethylcellulose (CMC)) was 186 % of control.

In the case of CCCCCCCCCCCCNCCCCCCCCCCCC, the T/C (dose: 7.5 mg/kg/injection, schedule: Q01DX Z (ip), vehicle: carboxymethylcellulose (CMC)) is reported as 108 % of control, the T/C (dose: 15.0 mg/kg/injection, schedule: Q01DX Z (ip), vehicle: carboxymethylcellulose (CMC)) is reported as 106 % of control and the T/C (dose: 30.0 mg/kg/injection, schedule: Q01DX Z (ip), vehicle: carboxymethylcellulose (CMC)) is reported as 110 % of control. For the same molecule, the T/C (dose: 60.0 mg/kg/injection, schedule: Q01DX Z (ip), vehicle: carboxymethylcellulose (CMC)) was 116 % of control.

In the case of C[C@@H]1C[C@@H]([C@H](O)CC2CC(=O)NC(=O)C2)C(=O)[C@@H](C)C1, the T/C [5] is reported as 94 % of control, the T/C (dose: 12.5 mg/kg/injection, schedule: Q01DX Z (ip), vehicle: water) is reported as 94 % of control and the T/C [7] is reported as 94 % of control. For the same molecule, the T/C (dose: 25.0 mg/kg/injection, schedule: Q01DX Z (ip), vehicle: water) was 98 % of control and the T/C [9] was 105 % of control.

Clc1ncnc2nc[nH]c12 was tested, and the T/C (dose: 7.5 mg/kg/injection, schedule: Q01DX010 (ip), vehicle: saline) was 88 % of control, the T/C (dose: 30.0 mg/kg/injection, schedule: Q01DX010 (ip), vehicle: saline) was 94 % of control and the T/C [3] was 86 % of control and 95 % of control. The T/C (dose: 62.5 mg/kg/injection, schedule: Q01DX Z (ip), vehicle: carboxymethylcellulose (CMC)) was 101 % of control and 102 % of control and 105 % of control, the T/C (dose: 125.0 mg/kg/injection, schedule: Q01DX Z (ip), vehicle: carboxymethylcellulose (CMC)) was 112 % of control and 114 % of control and 97 % of control and the T/C (dose: 250.0 mg/kg/injection, schedule: Q01DX Z (ip), vehicle: carboxymethylcellulose (CMC)) was 106 % of control (2×) and 110 % of control.

In the case of CC(=O)NC1=C(N2CC2)C(=O)C(NC(C)=O)=C(N2CC2)C1=O, the T/C (dose: 0.25 mg/kg/injection, schedule: Q01DX010 (ip), vehicle: saline) is reported as 105 % of control, the T/C (dose: 0.5 mg/kg/injection, schedule: Q01DX010 (ip), vehicle: saline) is reported as 166 % of control and the T/C (dose: 1.0 mg/kg/injection, schedule: Q01DX010 (ip), vehicle: saline) is reported as 222 % of control. The T/C (dose: 2.0 mg/kg/injection, schedule: Q01DX010 (ip), vehicle: saline) was 111 % of control, the T/C (dose: 125.0 micrograms/kg/injection, schedule: Q01DX010 (ip), vehicle: saline) was 105 % of control and the T/C (dose: 250.0 micrograms/kg/injection, schedule: Q01DX010 (ip), vehicle: saline) was 100 % of control. For the same molecule, the T/C (dose: 500.0 micrograms/kg/injection, schedule: Q01DX010 (ip), vehicle: saline) was 100 % of control and the T/C (dose: 1000.0 micrograms/kg/injection, schedule: Q01DX010 (ip), vehicle: saline) was 122 % of control.

Nc1nc(SCc2ccccc2)c2[nH]cnc2n1 was tested, and the T/C (dose: 2.5 mg/kg/injection, schedule: Q01DX Z (ip), vehicle: carboxymethylcellulose (CMC)) was 108 % of control, the T/C (dose: 4.95 mg/kg/injection, schedule: Q01DX Z (ip), vehicle: carboxymethylcellulose (CMC)) was 113 % of control and the T/C (dose: 8.0 mg/kg/injection, schedule: Q01DX010 (ip), vehicle: saline) was 94 % of control. For the same molecule, the T/C (dose: 9.9 mg/kg/injection, schedule: Q01DX Z (ip), vehicle: carboxymethylcellulose (CMC)) was 91 % of control, the T/C (dose: 16.0 mg/kg/injection, schedule: Q01DX010 (ip), vehicle: saline) was 88 % of control and the T/C (dose: 18.75 mg/kg/injection, schedule: Q01DX Z (ip), vehicle: carboxymethylcellulose (CMC)) was 88 % of control. The T/C (dose: 18.8 mg/kg/injection, schedule: Q01DX Z (ip), vehicle: carboxymethylcellulose (CMC)) was 113 % of control, the T/C (dose: 32.0 mg/kg/injection, schedule: Q01DX010 (ip), vehicle: saline) was 100 % of control and the T/C (dose: 64.0 mg/kg/injection, schedule: Q01DX010 (ip), vehicle: saline) was 122 % of control. The T/C (dose: 128.0 mg/kg/injection, schedule: Q01DX010 (ip), vehicle: saline) was 110 % of control.
